Measured values reported in ChEMBL document CHEMBL1136014 (J Med Chem, 2002).

Tests used:
Rattus norvegicus [1] = test: Effects on liver was determined from serum cholesterol levels in female (5) rats after 2 weeks of daily oral administration of compound at 300 mg/kg (Control = 0.73+/-0.05); assay type: functional
Rattus norvegicus [2] = test: Serum concentrations of T4 in rats after 2 weeks of daily oral administration of compound at 30 mg/kg (Control = 33.1+/-5.00); assay type: functional
Rattus norvegicus [3] = test: Effects on liver was determined from serum aspartate aminotransferase levels in female (5) rats after 2 weeks of daily oral administration of compound at 30 mg/kg (Control = 106+/-18); assay type: functional
Rattus norvegicus [4] = test: Effects on liver was determined from serum alanine aminotransferase levels in male (5) rats after 2 weeks of daily oral administration of compound at 30 mg/kg (Control = 30+/-3); assay type: functional
Rattus norvegicus [5] = test: Serum concentrations of T4 in rats after 2 weeks of daily oral administration of compound at 100 mg/kg (Control = 33.1+/-5.00); assay type: functional
Rattus norvegicus [6] = test: Effects on liver was determined from serum alanine aminotransferase levels in female (5) rats after 2 weeks of daily oral administration of compound at 30 mg/kg (Control = 23+/-5); assay type: functional
Rattus norvegicus [7] = test: Effects on liver was determined from serum aspartate aminotransferase levels in female (5) rats after 2 weeks of daily oral administration of compound at 100 mg/kg (Control = 106+/-18); assay type: functional
Rattus norvegicus [8] = test: Serum concentrations of Thyrotropin in rats after 2 weeks of daily oral administration of compound at 100 mg/kg (Control = 11.00+/-1.97); assay type: functional
Rattus norvegicus [9] = test: Serum concentrations of Thyrotropin in rats after 2 weeks of daily oral administration of compound at 30 mg/kg (Control = 11.00+/-1.97); assay type: functional
Rattus norvegicus [10] = test: Effects on liver was determined from serum alanine aminotransferase levels in male (5) rats after 2 weeks of daily oral administration of compound at 100 mg/kg (Control = 30+/-3); assay type: functional
Rattus norvegicus [11] = test: Serum concentrations of T3 in rats after 2 weeks of daily oral administration of compound at 300 mg/kg (Control = 0.74+/-0.15); assay type: functional
Rattus norvegicus [12] = test: Effects on liver was determined from serum alanine aminotransferase levels in female (5) rats after 2 weeks of daily oral administration of compound at 100 mg/kg (Control = 23+/-5); assay type: functional
Rattus norvegicus [13] = test: Effects on liver was determined from serum cholesterol levels in male (5) rats after 2 weeks of daily oral administration of compound at 30 mg/kg (Control = 0.67+/-0.13); assay type: functional
Rattus norvegicus [14] = test: Effects on liver was determined from serum aspartate aminotransferase levels in male (5) rats after 2 weeks of daily oral administration of compound at 30 mg/kg (Control = 111+/-21); assay type: functional
Rattus norvegicus [15] = test: Effects on liver was determined from serum aspartate aminotransferase levels in male (5) rats after 2 weeks of daily oral administration of compound at 100 mg/kg (Control = 111+/-21); assay type: functional
Rattus norvegicus [16] = test: Effects on liver was determined from serum alanine aminotransferase levels in male (5) rats after 2 weeks of daily oral administration of compound at 300 mg/kg (Control = 30+/-3); assay type: functional
[17] = target: Sodium channel alpha subunits; brain (Types I, II, III) (Rattus norvegicus) (UniProt P04775+P04774+P08104); settings: Forebrain, Membrane, 2 uM
Sequence of Sodium channel alpha subunits; brain (Types I, II, III) (Rattus norvegicus) (P04775 whole entry, looked up, other chains not shown): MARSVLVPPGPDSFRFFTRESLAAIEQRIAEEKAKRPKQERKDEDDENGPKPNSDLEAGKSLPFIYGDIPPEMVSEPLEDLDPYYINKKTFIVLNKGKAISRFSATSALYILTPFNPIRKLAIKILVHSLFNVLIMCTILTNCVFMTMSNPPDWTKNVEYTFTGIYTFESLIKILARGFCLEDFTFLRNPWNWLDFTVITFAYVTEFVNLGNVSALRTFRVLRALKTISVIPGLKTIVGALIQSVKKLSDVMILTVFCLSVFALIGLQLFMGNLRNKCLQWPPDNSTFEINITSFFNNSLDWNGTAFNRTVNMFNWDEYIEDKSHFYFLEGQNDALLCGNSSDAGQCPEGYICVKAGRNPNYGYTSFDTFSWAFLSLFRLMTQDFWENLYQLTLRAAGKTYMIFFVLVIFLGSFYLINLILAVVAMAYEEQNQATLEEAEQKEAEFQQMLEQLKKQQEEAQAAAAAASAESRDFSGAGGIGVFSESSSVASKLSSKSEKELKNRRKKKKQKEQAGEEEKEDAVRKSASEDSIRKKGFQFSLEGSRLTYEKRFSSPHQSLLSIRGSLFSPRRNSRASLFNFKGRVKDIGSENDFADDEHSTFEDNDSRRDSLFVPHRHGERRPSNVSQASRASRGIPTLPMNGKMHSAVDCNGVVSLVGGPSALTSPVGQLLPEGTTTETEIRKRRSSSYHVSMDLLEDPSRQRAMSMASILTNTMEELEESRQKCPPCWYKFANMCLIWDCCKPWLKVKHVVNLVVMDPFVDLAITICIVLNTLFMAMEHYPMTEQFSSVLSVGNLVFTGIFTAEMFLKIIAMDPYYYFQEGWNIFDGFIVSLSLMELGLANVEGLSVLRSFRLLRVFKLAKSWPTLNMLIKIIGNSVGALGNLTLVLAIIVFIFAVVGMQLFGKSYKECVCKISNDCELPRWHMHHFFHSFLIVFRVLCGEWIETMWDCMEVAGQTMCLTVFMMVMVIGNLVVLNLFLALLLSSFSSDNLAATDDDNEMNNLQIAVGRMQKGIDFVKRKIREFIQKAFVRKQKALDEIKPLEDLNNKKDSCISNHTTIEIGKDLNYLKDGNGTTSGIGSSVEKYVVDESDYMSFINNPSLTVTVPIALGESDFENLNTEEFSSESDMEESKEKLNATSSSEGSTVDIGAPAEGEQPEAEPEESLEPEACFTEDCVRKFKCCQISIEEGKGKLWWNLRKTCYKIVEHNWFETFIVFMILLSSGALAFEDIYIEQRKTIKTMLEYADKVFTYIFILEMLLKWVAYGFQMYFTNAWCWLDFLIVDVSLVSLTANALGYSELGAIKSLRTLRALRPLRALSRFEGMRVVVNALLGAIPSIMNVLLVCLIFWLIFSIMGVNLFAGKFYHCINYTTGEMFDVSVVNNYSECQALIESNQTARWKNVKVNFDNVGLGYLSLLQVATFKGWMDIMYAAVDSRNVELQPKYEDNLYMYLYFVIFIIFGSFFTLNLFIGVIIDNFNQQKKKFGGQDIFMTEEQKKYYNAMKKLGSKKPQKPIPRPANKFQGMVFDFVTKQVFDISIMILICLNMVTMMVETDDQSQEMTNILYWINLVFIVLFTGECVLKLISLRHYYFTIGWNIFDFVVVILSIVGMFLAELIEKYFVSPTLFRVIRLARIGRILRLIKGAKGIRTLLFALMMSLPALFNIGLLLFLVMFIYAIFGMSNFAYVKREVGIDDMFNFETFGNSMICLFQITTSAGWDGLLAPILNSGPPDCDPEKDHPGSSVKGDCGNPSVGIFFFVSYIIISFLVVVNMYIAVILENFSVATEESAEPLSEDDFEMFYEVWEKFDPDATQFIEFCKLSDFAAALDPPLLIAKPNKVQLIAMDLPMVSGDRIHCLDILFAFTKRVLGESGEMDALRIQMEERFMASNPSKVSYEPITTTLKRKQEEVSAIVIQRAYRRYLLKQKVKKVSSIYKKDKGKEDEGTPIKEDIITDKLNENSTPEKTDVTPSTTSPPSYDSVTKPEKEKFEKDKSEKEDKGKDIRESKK
Sequence of Sodium channel alpha subunits; brain (Types I, II, III) (Rattus norvegicus) (P08104 whole entry, looked up, other chains not shown): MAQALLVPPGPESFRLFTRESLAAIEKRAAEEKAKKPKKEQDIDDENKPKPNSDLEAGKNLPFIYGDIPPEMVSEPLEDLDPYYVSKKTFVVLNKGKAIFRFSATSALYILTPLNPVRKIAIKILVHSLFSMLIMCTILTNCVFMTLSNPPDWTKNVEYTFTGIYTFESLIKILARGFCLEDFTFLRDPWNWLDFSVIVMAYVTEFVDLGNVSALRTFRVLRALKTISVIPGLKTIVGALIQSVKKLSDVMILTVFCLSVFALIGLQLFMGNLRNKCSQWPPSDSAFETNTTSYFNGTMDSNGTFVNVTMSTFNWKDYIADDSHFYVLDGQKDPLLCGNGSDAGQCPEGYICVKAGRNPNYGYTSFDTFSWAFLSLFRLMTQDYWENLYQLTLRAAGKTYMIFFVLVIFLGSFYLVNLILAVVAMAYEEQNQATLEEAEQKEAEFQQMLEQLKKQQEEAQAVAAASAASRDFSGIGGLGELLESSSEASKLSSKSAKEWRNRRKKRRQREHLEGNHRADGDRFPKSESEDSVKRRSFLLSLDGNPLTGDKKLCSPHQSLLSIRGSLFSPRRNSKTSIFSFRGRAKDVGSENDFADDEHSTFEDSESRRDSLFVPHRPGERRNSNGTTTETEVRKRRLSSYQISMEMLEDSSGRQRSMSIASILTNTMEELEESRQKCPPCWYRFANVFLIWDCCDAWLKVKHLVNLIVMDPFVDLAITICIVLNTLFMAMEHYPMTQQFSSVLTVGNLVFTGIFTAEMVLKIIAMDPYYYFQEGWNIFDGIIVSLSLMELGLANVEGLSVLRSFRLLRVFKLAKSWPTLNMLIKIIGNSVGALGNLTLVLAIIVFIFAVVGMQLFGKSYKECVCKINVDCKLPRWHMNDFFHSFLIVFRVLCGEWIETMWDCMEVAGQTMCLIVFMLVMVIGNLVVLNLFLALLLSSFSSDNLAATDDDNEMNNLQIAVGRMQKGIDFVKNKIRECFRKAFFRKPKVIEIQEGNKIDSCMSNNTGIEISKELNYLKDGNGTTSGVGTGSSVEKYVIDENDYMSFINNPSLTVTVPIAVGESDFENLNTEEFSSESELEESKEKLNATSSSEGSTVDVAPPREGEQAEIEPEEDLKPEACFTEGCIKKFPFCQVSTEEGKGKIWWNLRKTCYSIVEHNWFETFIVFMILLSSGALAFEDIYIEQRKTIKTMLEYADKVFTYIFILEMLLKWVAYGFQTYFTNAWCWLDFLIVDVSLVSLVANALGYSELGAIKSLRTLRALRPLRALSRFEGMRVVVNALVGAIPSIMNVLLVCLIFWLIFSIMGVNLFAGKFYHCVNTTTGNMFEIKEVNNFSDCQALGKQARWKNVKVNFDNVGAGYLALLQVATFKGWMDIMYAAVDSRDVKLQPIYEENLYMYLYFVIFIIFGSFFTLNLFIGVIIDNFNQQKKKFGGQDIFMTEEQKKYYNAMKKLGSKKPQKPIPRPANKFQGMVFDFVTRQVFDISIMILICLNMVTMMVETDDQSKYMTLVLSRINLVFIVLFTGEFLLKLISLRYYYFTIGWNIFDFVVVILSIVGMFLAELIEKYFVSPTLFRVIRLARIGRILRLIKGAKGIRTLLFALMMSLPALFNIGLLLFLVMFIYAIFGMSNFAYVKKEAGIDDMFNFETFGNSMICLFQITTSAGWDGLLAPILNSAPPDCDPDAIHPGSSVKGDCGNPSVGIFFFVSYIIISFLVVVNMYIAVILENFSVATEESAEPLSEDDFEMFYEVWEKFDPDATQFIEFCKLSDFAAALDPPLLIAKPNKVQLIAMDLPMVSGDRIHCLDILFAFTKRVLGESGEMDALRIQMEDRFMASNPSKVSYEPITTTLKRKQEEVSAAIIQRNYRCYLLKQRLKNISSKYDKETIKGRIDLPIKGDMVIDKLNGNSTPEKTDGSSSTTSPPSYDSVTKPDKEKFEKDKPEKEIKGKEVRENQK

Rattus norvegicus [18] = test: Effects on liver was determined from serum alanine aminotransferase levels in female (5) rats after 2 weeks of daily oral administration of compound at 300 mg/kg (Control = 23+/-5); assay type: functional
Rattus norvegicus [19] = test: Effects on liver was determined from serum aspartate aminotransferase levels in female (5) rats after 2 weeks of daily oral administration of compound at 300 mg/kg (Control = 106+/-18); assay type: functional
Rattus norvegicus [20] = test: Serum concentrations of T3 in rats after 2 weeks of daily oral administration of compound at 100 mg/kg (Control = 0.74+/-0.15); assay type: functional
Rattus norvegicus [21] = test: Effects on liver was determined from serum cholesterol levels in male (5) rats after 2 weeks of daily oral administration of compound at 100 mg/kg (Control = 0.67+/-0.13); assay type: functional
Rattus norvegicus [22] = test: Effects on liver was determined from serum cholesterol levels in female (5) rats after 2 weeks of daily oral administration of compound at 30 mg/kg (Control = 0.73+/-0.05); assay type: functional
Rattus norvegicus [23] = test: Effects on liver was determined from serum aspartate aminotransferase levels in male (5) rats after 2 weeks of daily oral administration of compound at 300 mg/kg (Control = 111+/-21); assay type: functional
Rattus norvegicus [24] = test: Effects on liver was determined from serum cholesterol levels in female (5) rats after 2 weeks of daily oral administration of compound at 100 mg/kg (Control = 0.73+/-0.05); assay type: functional
[25] = target: L-type Ca2+ channel, dihydropyridine site (Rattus norvegicus, UniProt P22002+P27732+Q02485); test: Percentage inhibition of [3H]nitrendipine binding to L-type [Ca2+] channel dihydropyridine site in rat cortical membranes at 2 uM (70-80 %); assay type: cell membranes, Membrane; settings: probe [3H]nitrendipine
Rattus norvegicus [26] = test: Serum concentrations of Thyrotropin in rats after 2 weeks of daily oral administration of compound at 300 mg/kg (Control = 11.00+/-1.97); assay type: functional
Rattus norvegicus [27] = test: Effects on liver was determined from serum cholesterol levels in male (5) rats after 2 weeks of daily oral administration of compound at 300 mg/kg (Control = 0.67+/-0.13); assay type: functional
Rattus norvegicus [28] = test: Serum concentrations of T3 in rats after 2 weeks of daily oral administration of compound at 30 mg/kg (Control = 0.74+/-0.15); assay type: functional
Rattus norvegicus [29] = test: Serum concentrations of T4 in rats after 2 weeks of daily oral administration of compound at 300 mg/kg (Control = 33.1+/-5.00); assay type: functional
CHO-K1 [30] = test: Agonism of compound towards thyroid response element (TRAF alpha) in CHO-K1 cells; assay type: functional, cell-based; settings: Cricetulus griseus
[31] = target: T1, Thyroid hormone receptor alpha (Homo sapiens, UniProt P10827)
T1 sequence (P10827 whole entry): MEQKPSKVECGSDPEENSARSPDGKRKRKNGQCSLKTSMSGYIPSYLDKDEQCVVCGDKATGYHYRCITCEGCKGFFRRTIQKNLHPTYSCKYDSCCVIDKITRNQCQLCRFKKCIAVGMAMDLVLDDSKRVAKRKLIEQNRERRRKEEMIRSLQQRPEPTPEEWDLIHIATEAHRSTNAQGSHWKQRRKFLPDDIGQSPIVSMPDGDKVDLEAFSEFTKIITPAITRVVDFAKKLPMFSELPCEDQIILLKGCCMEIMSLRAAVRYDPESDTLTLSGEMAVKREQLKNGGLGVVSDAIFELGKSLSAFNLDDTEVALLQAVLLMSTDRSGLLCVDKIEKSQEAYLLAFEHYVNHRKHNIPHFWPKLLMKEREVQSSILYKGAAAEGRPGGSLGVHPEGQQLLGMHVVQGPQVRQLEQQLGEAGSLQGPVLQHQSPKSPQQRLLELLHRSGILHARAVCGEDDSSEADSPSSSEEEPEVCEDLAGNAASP
Description: Concentration required to inhibit 50% of binding of [125I]-T3 to human Thyroid hormone receptor alpha-1 in CHO-K1 cells

CHO-K1 [32] = test: Agonism of compound towards thyroid response element (TRAF beta) in CHO-K1 cells; assay type: functional, cell-based; settings: Cricetulus griseus
CHO-K1 [33] = test: Antagonism of compound towards thyroid response element (TRAF alpha) in CHO-K1 cells; settings: Cricetulus griseus
CHO-K1 [34] = test: Antagonism of compound towards thyroid response element (TRAF beta) in CHO-K1 cells; settings: Cricetulus griseus
[35] = target: T2, Thyroid hormone receptor beta (Homo sapiens, UniProt P10828)
T2 sequence (P10828 whole entry): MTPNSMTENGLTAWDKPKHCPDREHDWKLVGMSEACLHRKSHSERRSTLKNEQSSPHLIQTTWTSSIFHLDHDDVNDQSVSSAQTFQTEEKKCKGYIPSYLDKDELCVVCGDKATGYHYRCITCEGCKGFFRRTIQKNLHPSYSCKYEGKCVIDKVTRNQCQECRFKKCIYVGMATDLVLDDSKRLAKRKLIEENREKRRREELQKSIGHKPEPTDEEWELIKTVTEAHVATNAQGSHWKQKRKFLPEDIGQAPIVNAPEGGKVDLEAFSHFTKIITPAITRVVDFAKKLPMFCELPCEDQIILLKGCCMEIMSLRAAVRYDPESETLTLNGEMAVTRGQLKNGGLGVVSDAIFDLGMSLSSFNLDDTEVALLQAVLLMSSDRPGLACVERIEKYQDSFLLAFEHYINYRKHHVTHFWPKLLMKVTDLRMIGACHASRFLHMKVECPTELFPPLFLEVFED
Description: Concentration required to inhibit 50% of binding of [125I]T3 to human Thyroid hormone receptor beta 1 in CHO-K1 cells

CHO-K1 [36] = test: Percentage agonism of compound towards thyroid response element (TRAF alpha) in CHO-K1 cells at 10 uM; Partial agonist; assay type: functional, Cricetulus griseus
Cavia porcellus [37] = test: Action potential duration at 50% levels of repolarization in guinea pig papillary muscles after twenty days of daily i.p. injection of 40 mg/kg (Control = 168); assay type: functional, Muscle tissue; settings: route intraperitoneal
Cavia porcellus [38] = test: Effective refractory period in guinea pig papillary muscles after twenty days of daily i.p. injection of 40 mg/kg Control = 201); assay type: functional, Muscle tissue; settings: route intraperitoneal
Cavia porcellus [39] = test: Ratio of action potential duration (APD90/APD50) in guinea pig papillary muscles after twenty days of daily i.p. injection of 40 mg/kg Control = 1.10); assay type: functional, Papillary muscle; settings: route intraperitoneal
Cavia porcellus [40] = test: Action potential amplitude of compound on guinea pig papillary muscles after twenty days of daily i.p. injection of 40 mg/kg Control = 115); assay type: functional, Muscle tissue; settings: route intraperitoneal
Cavia porcellus [41] = test: Vmax of the action potential amplitude in guinea pig papillary muscles after twenty days of daily i.p. injection of 40 mg/kg Control = 205); assay type: functional; design: dose 40 mg/kg; settings: Muscle tissue
Cavia porcellus [42] = test: Action potential duration at 90% levels of repolarization in guinea pig papillary muscles after twenty days of daily i.p. injection of 40 mg/kg Control = 186); assay type: functional, Muscle tissue; settings: route intraperitoneal

Row | IC50 [31] [µM] | Compound | Cholestrol levels (Rattus norvegicus [1]) [g/L] | Thyroid status (Rattus norvegicus [2]) [nM l-1] | ASAT levels (Rattus norvegicus [3]) [IU/l] | ALAT levels (Rattus norvegicus [4]) [IU/l] | Thyroid status (Rattus norvegicus [5]) [nM l-1] | ALAT levels (Rattus norvegicus [6]) [IU/l] | ASAT levels (Rattus norvegicus [7]) [IU/l] | Thyroid status (Rattus norvegicus [8]) [ng/mL] | Thyroid status (Rattus norvegicus [9]) [ng/mL] | ALAT levels (Rattus norvegicus [10]) [IU/l] | Thyroid status (Rattus norvegicus [11]) [nM l-1] | ALAT levels (Rattus norvegicus [12]) [IU/l] | Cholestrol levels (Rattus norvegicus [13]) [g/L] | ASAT levels (Rattus norvegicus [14]) [IU/l] | ASAT levels (Rattus norvegicus [15]) [IU/l] | EC50 (CHO-K1 [30]) [µM] | EC50 (CHO-K1 [32]) [µM] | IC50 (CHO-K1 [33]) [µM] | IC50 (CHO-K1 [34]) [µM] | further results
1 |  | CCCCc1oc2ccccc2c1C(=O)c1cc(I)c(OCCN(CC)CC)c(I)c1 [AMIODARONE] | 1.12 | 43.9 | 109 | 35 | 43.2 | 23 | 133 | 16.1 | 13.9 | 62 | 0.28 | 62 | 0.77 | 110 | 131 |  |  |  |  | ALAT levels (Rattus norvegicus [16]): 103 IU/l; inhibition [17]: 70%; ALAT levels (Rattus norvegicus [18]): 284 IU/l; ASAT levels (Rattus norvegicus [19]): 2052 IU/l; Thyroid status (Rattus norvegicus [20]): 0.66 nM l-1; Cholestrol levels (Rattus norvegicus [21]): 1.26 g/L; Cholestrol levels (Rattus norvegicus [22]): 0.89 g/L; ASAT levels (Rattus norvegicus [23]): 550 IU/l; Cholestrol levels (Rattus norvegicus [24]): 1.18 g/L; inhibition at 2 µM [25]: 80%; Thyroid status (Rattus norvegicus [26]): 11.2 ng/mL; Cholestrol levels (Rattus norvegicus [27]): 1.39 g/L; Thyroid status (Rattus norvegicus [28]): 0.66 nM l-1; Thyroid status (Rattus norvegicus [29]): 22.3 nM l-1
2 | 1.4 | CCCCc1oc2ccccc2c1C(=O)c1cc(I)c(OCC(=O)O)c(I)c1 |  |  |  |  |  |  |  |  |  |  |  |  |  |  |  | > 10 | > 10 | > 10 | > 10 | 
3 | 0.82 | Cc1oc2ccccc2c1C(=O)c1cc(I)c(OCC(=O)O)c(I)c1 |  |  |  |  |  |  |  |  |  |  |  |  |  |  |  | 0.45 | 1.7 | > 10 | > 10 | IC50 [35]: 0.48 µM; Effect (CHO-K1 [36]): 56%
4 | 4.5 | Cc1oc2ccccc2c1Cc1cc(I)c(OCC(=O)O)c(I)c1 | 0.93 | 35.1 | 101 | 30 | 37.1 | 21 | 114 | 16.6 | 14.2 | 43 | 0.52 | 40 | 0.63 | 104 | 111 | > 10 | > 10 | 2.2 | 4.1 | APD50 (Cavia porcellus [37]): 182 ms; ERP (Cavia porcellus [38]): 223 ms; Ratio (Cavia porcellus [39]): 1.22; APA (Cavia porcellus [40]): 116 mV; ALAT levels (Rattus norvegicus [16]): 67 IU/l; ALAT levels (Rattus norvegicus [18]): 54 IU/l; ASAT levels (Rattus norvegicus [19]): 115 IU/l; Thyroid status (Rattus norvegicus [20]): 0.51 nM l-1; Cholestrol levels (Rattus norvegicus [21]): 0.78 g/L; Cholestrol levels (Rattus norvegicus [22]): 0.68 g/L; IC50 [35]: 5.1 µM; ASAT levels (Rattus norvegicus [23]): 102 IU/l; Cholestrol levels (Rattus norvegicus [24]): 0.69 g/L; Vmax (Cavia porcellus [41]): 192 V s-1; Thyroid status (Rattus norvegicus [26]): 16.6 ng/mL; Cholestrol levels (Rattus norvegicus [27]): 0.91 g/L; APD90 (Cavia porcellus [42]): 219 ms; Thyroid status (Rattus norvegicus [28]): 0.52 nM l-1; Thyroid status (Rattus norvegicus [29]): 46.6 nM l-1
